This passage reports IC50 results from patent US11312723B2, “Pyranopyrazole and pyrazolopyridine immunomodulators for treatment of autoimmune diseases” (The Rockefeller University, priority 2017, dated 2022).

The target in assay [1] is Human FXIIa (Homo sapiens (Human), UniProt P00748). In words: Factor XIIa (FXIIa) inhibitory activity, chromogenic substrate (Pefachrome XIIa) cleavage. It counts as biochemical. Particulars: 10 min pre-incubation, Pefachrome XIIa 400 μM.
Assay [2] has as its target Human alpha-thrombin (Homo sapiens (Human), UniProt P00734). Nature of the assay: Thrombin counterscreen for selectivity, fluorogenic substrate cleavage. It counts as biochemical. To be noted: 10 min pre-incubation, Boc-Val-Pro-Arg-AMC 20 μM. For orientation: The purpose of a counterscreen is to sort out artefacts and off-target activity.

Structures can show the parent of a compound that is named as a salt.

Human FXIIa, sequence (P00748 373-615): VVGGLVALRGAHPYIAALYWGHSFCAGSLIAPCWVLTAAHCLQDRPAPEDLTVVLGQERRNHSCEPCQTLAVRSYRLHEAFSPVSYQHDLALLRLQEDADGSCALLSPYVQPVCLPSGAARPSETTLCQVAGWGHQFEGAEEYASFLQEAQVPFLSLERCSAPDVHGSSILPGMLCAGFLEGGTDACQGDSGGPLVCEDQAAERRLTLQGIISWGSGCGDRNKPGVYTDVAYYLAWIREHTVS
Human FXIIa, sequence (P00748 20-372 partner): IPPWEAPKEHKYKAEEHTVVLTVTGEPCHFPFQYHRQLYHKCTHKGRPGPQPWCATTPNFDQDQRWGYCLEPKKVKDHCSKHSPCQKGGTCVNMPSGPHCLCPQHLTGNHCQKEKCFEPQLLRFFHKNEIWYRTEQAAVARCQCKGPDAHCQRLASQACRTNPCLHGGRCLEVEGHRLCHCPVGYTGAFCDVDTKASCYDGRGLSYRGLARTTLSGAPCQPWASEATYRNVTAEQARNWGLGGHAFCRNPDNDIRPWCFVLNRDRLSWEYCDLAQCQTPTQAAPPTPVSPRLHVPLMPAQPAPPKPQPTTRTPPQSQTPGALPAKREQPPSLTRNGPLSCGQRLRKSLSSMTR

Regarding `CCC(=O)N1CCc2c(nn(C(=O)C3CCNc4ccccc43)c2N)C1` (centres unmarked) [Example 119, 1-(3-amino-2-(1,2,3,4-tetrahydro-quinoline-4-carbonyl)-4,5-dihydro-2H-pyrazolo[3,4-c]pyridin-6(7H)-yl)propan-1-one], the IC50 – broadly, the point on the concentration scale where inhibition reaches its midpoint – in assay [1] was 0.45 µM; in assay [2] it was > 85 µM.
For `CCC(=O)N1CCc2c(N)nn(C(=O)C3CCNc4ccccc43)c2C1` (centres unmarked) [Example 120, 1-(3-amino-1-(1,2,3,4-tetrahydro-quinoline-4-carbonyl)-4,5-dihydro-1H-pyrazolo[3,4-c]pyridin-6(7H)-yl)propan-1-one] the same measures were 15 µM and > 75 µM.
As to `CC(C)C(=O)N1CCc2c(nn(C(=O)C3CCNc4ccccc43)c2N)C1` (centres unmarked) [Example 121, 1-(3-amino-2-(1,2,3,4-tetrahydro-quinoline-4-carbonyl)-4,5-dihydro-2H-pyrazolo[3,4-c]pyridin-6(7H)-yl)-2-methylpropan-1-one], the IC50 is 0.4 µM in assay [1] and > 80 µM in assay [2].
Taken in the same sequence, the figures for `CN(C)C(=O)N1CCc2c(nn(C(=O)C3CCNc4ccccc43)c2N)C1` (centres unmarked) [Example 123, 3-amino-N,N-dimethyl-2-(1,2,3,4-tetrahydro-quinoline-4-carbonyl)-4,5-dihydro-2H-pyrazolo[3,4-c]pyridine-6(7H)-carboxamide] were 0.35 µM and > 80 µM.
Regarding `CCS(=O)(=O)N1CCc2c(nn(C(=O)C3CCNc4ccccc43)c2N)C1` (centres unmarked) [Example 125, (3-amino-6-(ethylsulfonyl)-4,5,6,7-tetrahydro-pyrazolo[3,4-c]pyridin-2-yl)(1,2,3,4-tetrahydro-quinolin-4-yl)methanone], the 50% inhibitory concentration (IC50) in assay [1] stood at 0.25 µM; in assay [2], 100 µM.
Take `CCS(=O)(=O)N1CCc2c(N)nn(C(=O)C3CCNc4ccccc43)c2C1` (centres unmarked) [Example 126, (3-amino-6-(ethylsulfonyl)-4,5,6,7-tetrahydro-pyrazolo[3,4-c]pyridin-1-yl)(1,2,3,4-tetrahydro-quinolin-4-yl)methanone]: the IC50 in assay [1] was 32 µM; in assay [2], > 70 µM.
For the molecule `CC(C)S(=O)(=O)N1CCc2c(nn(C(=O)C3CCNc4ccccc43)c2N)C1` (centres unmarked) [Example 127, (3-amino-6-(isopropyl-sulfonyl)-4,5,6,7-tetrahydro-pyrazolo[3,4-c]pyridin-2-yl)(1,2,3,4-tetrahydro-quinolin-4-yl)methanone], the results for the IC50 in assay [1] and in assay [2] were 0.2 µM and > 70 µM, respectively.
Taken in the same sequence, the figures for `CC(C)S(=O)(=O)N1CCc2c(N)nn(C(=O)C3CCNc4ccccc43)c2C1` (centres unmarked) [Example 128, (3-amino-6-(isopropyl-sulfonyl)-4,5,6,7-tetrahydro-pyrazolo[3,4-c]pyridin-1-yl)(1,2,3,4-tetrahydro-quinolin-4-yl)methanone] were 28 µM and > 65 µM.
As for `CC(C)S(=O)(=O)N1CCc2c(nn(C(=O)C3CCNc4ccc(F)cc43)c2N)C1` (centres unmarked) [Example 136, (3-amino-6-(isopropyl-sulfonyl)-4,5,6,7-tetrahydro-pyrazolo[3,4-c]pyridin-2-yl)(6-fluoro-1,2,3,4-tetrahydro-quinolin-4-yl)methanone], the IC50 is 0.08 µM in assay [1] and > 55 µM in assay [2].
Take `CC(C)(C)S(=O)(=O)N1CCc2c(nn(C(=O)C3CCNc4ccc(F)cc43)c2N)C1` (centres unmarked) [Example 138, (3-amino-6-(tert-butylsulfonyl)-4,5,6,7-tetrahydro-pyrazolo[3,4-c]pyridin-2-yl)(6-fluoro-1,2,3,4-tetrahydro-quinolin-4-yl)methanone]: the IC50 is 0.08 µM in assay [1] and > 100 µM in assay [2].
In the case of `Nc1c2c(nn1C(=O)C1CCNc3ccc(F)cc31)CN(S(=O)(=O)CF)CC2` (centres unmarked) [Example 140, (3-amino-6-(fluoromethyl-sulfonyl)-4,5,6,7-tetrahydro-pyrazolo[3,4-c]pyridin-2-yl)(6-fluoro-1,2,3,4-tetrahydro-quinolin-4-yl)methanone], the values for the IC50 in assay [1] and in assay [2] were 0.13 µM and 60 µM, respectively.
As for `Nc1c2c(nn1C(=O)C1CCNc3ccc(F)cc31)CN(S(=O)(=O)CC(F)F)CC2` (centres unmarked) [Example 142, (3-amino-6-(2,2-difluoroethyl-sulfonyl)-4,5,6,7-tetrahydro-pyrazolo[3,4-c]pyridin-2-yl)(6-fluoro-1,2,3,4-tetrahydro-quinolin-4-yl)methanone], the values for the IC50 in assay [1] and in assay [2] were 0.2 µM and 40 µM, respectively.
For the molecule `Nc1c2c(nn1C(=O)C1CCNc3ccc(F)cc31)CN(S(=O)(=O)C1CC1)CC2` (centres unmarked) [Example 144, (3-amino-6-(cyclopropyl-sulfonyl)-4,5,6,7-tetrahydro-pyrazolo[3,4-c]pyridin-2-yl)(6-fluoro-1,2,3,4-tetrahydro-quinolin-4-yl)methanone], the IC50 in assay [1] was 0.23 µM; in assay [2], > 80 µM.
Taken in the same sequence, the figures for `CCCN1CCc2c(nn(C(=O)C3CCNc4ccc(F)cc43)c2N)C1` (centres unmarked) [Example 149, (3-amino-6-propyl-4,5,6,7-tetrahydro-pyrazolo[3,4-c]pyridin-2-yl)(6-fluoro-1,2,3,4-tetrahydro-quinolin-4-yl)methanone] were 0.05 µM and 64 µM.
For `CC(C)N1CCc2c(nn(C(=O)C3CCNc4ccc(F)cc43)c2N)C1` (centres unmarked) [Example 151, Formic Acid salt of (3-amino-6-isopropyl-4,5,6,7-tetrahydro-pyrazolo[3,4-c]pyridin-2-yl)(6-fluoro-1,2,3,4-tetrahydro-quinolin-4-yl)methanone] the same measures were 0.04 µM and > 70 µM.
For `CC(C)CN1CCc2c(nn(C(=O)C3CCNc4ccc(F)cc43)c2N)C1` (centres unmarked) [Example 153, (3-amino-6-isobutyl-4,5,6,7-tetrahydro-pyrazolo[3,4-c]pyridin-2-yl)(6-fluoro-1,2,3,4-tetrahydro-quinolin-4-yl)methanone] the same measures were 0.05 µM and > 100 µM.
As to `Nc1c2c(nn1C(=O)C1CCNc3ccc(F)cc31)CN(S(=O)(=O)c1cccnc1)CC2` (centres unmarked) [Example 157, (3-amino-6-(pyridin-3-ylsulfonyl)-4,5,6,7-tetrahydro-pyrazolo[3,4-c]pyridin-2-yl)(6-fluoro-1,2,3,4-tetrahydro-quinolin-4-yl)methanone], the values for the IC50 in assay [1] and in assay [2] were 0.7 µM and 15 µM, respectively.
As to `Nc1c2c(nn1C(=O)C1CCNc3ccc(F)cc31)CN(S(=O)(=O)C(F)F)CC2` (centres unmarked) [Example 159, (3-amino-6-(difluoromethyl-sulfonyl)-4,5,6,7-tetrahydro-pyrazolo[3,4-c]pyridin-2-yl)(6-fluoro-1,2,3,4-tetrahydro-quinolin-4-yl)methanone], the 50% inhibitory concentration (IC50) worked out at 0.13 µM in assay [1] and 70 µM in assay [2].
As for `CCN1CCc2c(nn(C(=O)C3CCNc4ccc(Cl)cc43)c2N)C1` (centres unmarked) [Example 161, (3-amino-6-ethyl-4,5,6,7-tetrahydro-pyrazolo[3,4-c]pyridin-2-yl)(6-chloro-1,2,3,4-tetrahydro-quinolin-4-yl)methanone], the results for the IC50 in assay [1] and in assay [2] were 0.05 µM and 20 µM, respectively.
Consider `CCN1CCc2c(nn(C(=O)C3CCNc4ccc(F)cc43)c2N)C1` (centres unmarked) [Example 163, (3-amino-6-ethyl-4,5,6,7-tetrahydro-pyrazolo[3,4-c]pyridin-2-yl)(6-fluoro-1,2,3,4-tetrahydro-quinolin-4-yl)methanone], for which the IC50 was 0.03 µM in assay [1] and > 100 µM in assay [2].
`Nc1c2c(nn1C(=O)C1CCNc3ccc(F)cc31)CN(c1ccccn1)CC2` (centres unmarked) [Example 167, (3-amino-6-(pyridin-2-yl)-4,5,6,7-tetrahydro-pyrazolo[3,4-c]pyridin-2-yl)(6-fluoro-1,2,3,4-tetrahydro-quinolin-4-yl)methanone]: the IC50 was 60 µM in assay [1] and > 120 µM in assay [2].
With `CS(=O)(=O)N1CCc2c(nn(C(=O)C3CCNc4ccc(-c5ccncc5)cc43)c2N)C1` (centres unmarked) [Example 168, (3-amino-6-(methylsulfonyl)-4,5,6,7-tetrahydro-pyrazolo[3,4-c]pyridin-2-yl)(6-(pyridin-4-yl)-1,2,3,4-tetrahydro-quinolin-4-yl)methanone], the figures for the half-maximal inhibitory concentration (IC50) in assay [1] and in assay [2] were 2 µM and 3.5 µM, respectively.
Turning to `CS(=O)(=O)N1CCc2c(N)nn(C(=O)C3CCNc4ccc(-c5ccncc5)cc43)c2C1` (centres unmarked) [Example 169, (3-amino-6-(methylsulfonyl)--4,5,6,7-tetrahydro-pyrazolo[3,4-c]pyridin-1-yl)(6-(pyridin-4-yl)-1,2,3,4-tetrahydro-quinolin-4-yl)methanone], the IC50 in assay [1] and in assay [2] was 15 µM throughout.
Take `Cc1cccc2c1NCCC2C(=O)n1nc2c(c1N)COCC2` (centres unmarked) [Example 188, (3-amino-6,7-dihydropyrano[4,3-c]pyrazol-2(4H)-yl)(8-methyl-1,2,3,4-tetrahydro-quinolin-4-yl)methanone]: the concentration for half-maximal inhibition (IC50) in assay [1] was 0.17 µM; in assay [2], > 80 µM.
On to `Nc1c2c(nn1C(=O)C1CCNc3ccc(F)cc31)COCC2` (centres unmarked) [Example 194, (3-amino-4,5-dihydropyrano[3,4-c]pyrazol-2(7H)-yl)(6-fluoro-1,2,3,4-tetrahydro-quinolin-4-yl)methanone], for which the IC50 is 0.16 µM in assay [1] and 70 µM in assay [2].
